± gives the expanded uncertainty stated by the source.
Settings: Liquid, Vibrating tube method

Which mass density (303.15 K, 20042 kPa) does the source give for `CC(C)CO` [2-methyl-1-propanol] here?
Its mass density is 809.402 ± 0.83 kg/m3.

And the mass density (303.15 K, 25084 kPa)?
The mass density was 812.578 ± 0.84 kg/m3.

And the mass density (303.15 K, 30167 kPa)?
Its mass density is 816.191 ± 0.85 kg/m3.

And the mass density (303.15 K, 32070 kPa)?
The mass density was 817.319 ± 0.86 kg/m3.

What about the mass density (303.15 K, 33147 kPa) of the same molecule?
The mass density was 817.694 ± 0.86 kg/m3.

And the mass density (303.15 K, 35162 kPa)?
The mass density was 818.815 ± 0.86 kg/m3.

What about the mass density (303.15 K, 38019 kPa) of the same molecule?
Its mass density is 820.574 ± 0.87 kg/m3.

What about the mass density (303.15 K, 39970 kPa) of the same molecule?
Its mass density is 821.716 ± 0.87 kg/m3.

And the mass density (303.15 K, 42004 kPa)?
The mass density was 823.024 ± 0.88 kg/m3.

What about the mass density (303.15 K, 45033 kPa) of the same molecule?
The mass density was 824.95 ± 0.88 kg/m3.

And the mass density (303.15 K, 49864 kPa)?
The mass density was 827.592 ± 0.89 kg/m3.

What about the mass density (303.15 K, 52115 kPa) of the same molecule?
The mass density was 829.036 ± 0.9 kg/m3.

And the mass density (303.15 K, 55239 kPa)?
Its mass density is 830.776 ± 0.91 kg/m3.

And the mass density (303.15 K, 58089 kPa)?
The mass density was 832.479 ± 0.91 kg/m3.

And the mass density (303.15 K, 60079 kPa)?
Its mass density is 833.282 ± 0.92 kg/m3.

And the mass density (303.15 K, 62294 kPa)?
Its mass density is 834.706 ± 0.92 kg/m3.

What about the mass density (303.15 K, 65137 kPa) of the same molecule?
The mass density was 835.715 ± 0.93 kg/m3.

What about the mass density (303.16 K, 270.1 kPa) of the same molecule?
The mass density was 793.901 ± 0.81 kg/m3.

What about the mass density (303.16 K, 464.4 kPa) of the same molecule?
The mass density was 794.084 ± 0.81 kg/m3.

And the mass density (303.16 K, 779.6 kPa)?
The mass density was 794.287 ± 0.81 kg/m3.

What about the mass density (303.16 K, 2945 kPa) of the same molecule?
The mass density was 796.031 ± 0.81 kg/m3.

And the mass density (303.16 K, 4911.2 kPa)?
Its mass density is 797.923 ± 0.81 kg/m3.

And the mass density (303.16 K, 7058.6 kPa)?
Its mass density is 799.569 ± 0.81 kg/m3.

And the mass density (303.16 K, 12047 kPa)?
Its mass density is 803.47 ± 0.82 kg/m3.

What about the mass density (303.16 K, 22055 kPa) of the same molecule?
Its mass density is 811.092 ± 0.84 kg/m3.

What about the mass density (303.16 K, 28094 kPa) of the same molecule?
The mass density was 815.049 ± 0.85 kg/m3.

And the mass density (303.16 K, 32939 kPa)?
Its mass density is 817.604 ± 0.86 kg/m3.

What about the mass density (303.16 K, 34037 kPa) of the same molecule?
The mass density was 818.139 ± 0.86 kg/m3.

What about the mass density (303.16 K, 48317 kPa) of the same molecule?
Its mass density is 826.769 ± 0.89 kg/m3.

What about the mass density (303.16 K, 66124 kPa) of the same molecule?
Its mass density is 836.43 ± 0.93 kg/m3.

What about the mass density (308.15 K, 96.7 kPa) of the same molecule?
Its mass density is 791.579 ± 0.81 kg/m3.

And the mass density (308.15 K, 250.6 kPa)?
The mass density was 791.714 ± 0.81 kg/m3.

And the mass density (308.15 K, 562.2 kPa)?
Its mass density is 791.995 ± 0.81 kg/m3.

What about the mass density (308.15 K, 991.9 kPa) of the same molecule?
The mass density was 792.349 ± 0.81 kg/m3.

What about the mass density (308.15 K, 5219.3 kPa) of the same molecule?
Its mass density is 795.881 ± 0.81 kg/m3.

And the mass density (308.15 K, 10282 kPa)?
Its mass density is 799.926 ± 0.82 kg/m3.

What about the mass density (308.15 K, 15083 kPa) of the same molecule?
Its mass density is 803.575 ± 0.83 kg/m3.

What about the mass density (308.15 K, 32866 kPa) of the same molecule?
Its mass density is 815.75 ± 0.86 kg/m3.

What about the mass density (308.15 K, 35203 kPa) of the same molecule?
Its mass density is 817.171 ± 0.86 kg/m3.

And the mass density (308.15 K, 48031 kPa)?
The mass density was 824.96 ± 0.89 kg/m3.

And the mass density (308.15 K, 55094 kPa)?
The mass density was 828.952 ± 0.91 kg/m3.

And the mass density (308.15 K, 60161 kPa)?
Its mass density is 831.729 ± 0.92 kg/m3.

What about the mass density (308.15 K, 62192 kPa) of the same molecule?
Its mass density is 832.798 ± 0.92 kg/m3.

What about the mass density (308.15 K, 66004 kPa) of the same molecule?
The mass density was 834.804 ± 0.93 kg/m3.

What about the mass density (308.16 K, 770.2 kPa) of the same molecule?
The mass density was 792.158 ± 0.81 kg/m3.

What about the mass density (308.16 K, 2101.2 kPa) of the same molecule?
Its mass density is 793.3 ± 0.81 kg/m3.

What about the mass density (308.16 K, 3195.1 kPa) of the same molecule?
The mass density was 794.224 ± 0.81 kg/m3.

And the mass density (308.16 K, 7083 kPa)?
Its mass density is 797.398 ± 0.81 kg/m3.

And the mass density (308.16 K, 9108 kPa)?
Its mass density is 799.011 ± 0.82 kg/m3.

What about the mass density (308.16 K, 12379 kPa) of the same molecule?
The mass density was 801.538 ± 0.82 kg/m3.

And the mass density (308.16 K, 18161 kPa)?
Its mass density is 805.827 ± 0.83 kg/m3.

What about the mass density (308.16 K, 20006 kPa) of the same molecule?
The mass density was 807.165 ± 0.83 kg/m3.

And the mass density (308.16 K, 22192 kPa)?
The mass density was 808.686 ± 0.84 kg/m3.

And the mass density (308.16 K, 25100 kPa)?
Its mass density is 810.705 ± 0.84 kg/m3.

What about the mass density (308.16 K, 27887 kPa) of the same molecule?
Its mass density is 812.568 ± 0.85 kg/m3.

What about the mass density (308.16 K, 30041 kPa) of the same molecule?
Its mass density is 813.99 ± 0.85 kg/m3.

What about the mass density (308.16 K, 31933 kPa) of the same molecule?
Its mass density is 815.242 ± 0.86 kg/m3.

And the mass density (308.16 K, 33077 kPa)?
Its mass density is 815.959 ± 0.86 kg/m3.

What about the mass density (308.16 K, 34026 kPa) of the same molecule?
Its mass density is 816.482 ± 0.86 kg/m3.

What about the mass density (308.16 K, 35193 kPa) of the same molecule?
The mass density was 817.245 ± 0.86 kg/m3.

What about the mass density (308.16 K, 38088 kPa) of the same molecule?
Its mass density is 818.995 ± 0.87 kg/m3.

What about the mass density (308.16 K, 40106 kPa) of the same molecule?
The mass density was 820.225 ± 0.87 kg/m3.

What about the mass density (308.16 K, 42282 kPa) of the same molecule?
Its mass density is 821.541 ± 0.88 kg/m3.

What about the mass density (308.16 K, 45145 kPa) of the same molecule?
The mass density was 823.251 ± 0.89 kg/m3.

And the mass density (308.16 K, 50089 kPa)?
The mass density was 826.126 ± 0.9 kg/m3.

And the mass density (308.16 K, 52047 kPa)?
The mass density was 827.233 ± 0.9 kg/m3.

And the mass density (308.16 K, 58085 kPa)?
The mass density was 830.585 ± 0.91 kg/m3.

And the mass density (308.16 K, 65217 kPa)?
The mass density was 834.405 ± 0.93 kg/m3.

And the mass density (313.15 K, 82.9 kPa)?
Its mass density is 787.4 ± 0.81 kg/m3.

What about the mass density (313.15 K, 316.8 kPa) of the same molecule?
The mass density was 787.607 ± 0.81 kg/m3.

And the mass density (313.15 K, 491.8 kPa)?
Its mass density is 787.767 ± 0.81 kg/m3.

And the mass density (313.15 K, 890.9 kPa)?
Its mass density is 788.108 ± 0.81 kg/m3.

And the mass density (313.15 K, 981.5 kPa)?
Its mass density is 788.182 ± 0.81 kg/m3.

And the mass density (313.15 K, 1939.6 kPa)?
Its mass density is 789.038 ± 0.81 kg/m3.

What about the mass density (313.15 K, 2951 kPa) of the same molecule?
The mass density was 789.905 ± 0.81 kg/m3.

What about the mass density (313.15 K, 4889.1 kPa) of the same molecule?
The mass density was 791.537 ± 0.81 kg/m3.

And the mass density (313.15 K, 6856.5 kPa)?
The mass density was 793.195 ± 0.81 kg/m3.

And the mass density (313.15 K, 8886.9 kPa)?
The mass density was 794.841 ± 0.82 kg/m3.

And the mass density (313.15 K, 10029 kPa)?
The mass density was 795.77 ± 0.82 kg/m3.

And the mass density (313.15 K, 11886 kPa)?
The mass density was 797.214 ± 0.82 kg/m3.
